Values after ≈ are worked out from the molar mass of the structure shown. Like-named read-outs stand apart in the source and are kept apart here.
Tests used:
[1] = system: M. suipneumoniae HK(2); experiment: Anti-mycoplasmal activity, MIC in Friis broth agarose; type: cell-based; details: Friis broth solidified with 0.9% agarose, 6 days incubation at 37°C
[2] = system: M. bovis NCTC 10131; experiment: microbe, parasite or virus in culture; type: cell-based
[3] = system: M. hyorhinis ATCC 23234; experiment: Anti-mycoplasmal activity, MIC in Friis broth agarose; type: cell-based; details: Friis broth solidified with 0.9% agarose, 6 days incubation at 37°C
[4] = system: Haemophilus influenzae Wy21; experiment: Human bacteria, MIC by serial dilution in nutrient agar; type: cell-based; details: nutrient agar with 5% chocolated horse blood, 18 hours at 37°C
[5] = system: M. suipneumoniae PW/C/210; experiment: Anti-mycoplasmal activity, MIC in Friis broth agarose; type: cell-based; details: Friis broth solidified with 0.9% agarose, 6 days incubation at 37°C
[6] = system: M. hyosynoviae ATCC 25591; experiment: as above; type: cell-based; details: Friis broth solidified with 0.9% agarose, 6 days incubation at 37°C
[7] = system: M. suipneumoniae LABER; experiment: as above; type: cell-based; details: Friis broth solidified with 0.9% agarose, 6 days incubation at 37°C
[8] = system: Strep. uberis SPU1; experiment: Veterinary bacteria, MIC by two fold serial dilution in agar
Procedure: (§1) The activity of the compounds of the Examples against various organisms important in veterinary infections was determined using two fold serial dilutions in Diagnostic Sensitivity Test Agar inoculated with 10^4 organisms.

[9] = system: Staph. aureus W2827; experiment: Human bacteria, MIC by serial dilution in nutrient agar; type: cell-based; details: nutrient agar with 5% chocolated horse blood, 18 hours at 37°C
[10] = system: Staph. aureus Oxford; experiment: Veterinary bacteria, MIC by two fold serial dilution in agar
Procedure: as §1

[11] = system: Staph. aureus 152 (pen. sens.); experiment: as above
Procedure: as §1

[12] = system: Strep. faecalis I; experiment: Human bacteria, MIC by serial dilution in nutrient agar; type: cell-based; details: nutrient agar with 5% chocolated horse blood, 18 hours at 37°C
[13] = system: Pasteurella multocida 1633; experiment: as above; type: cell-based; details: nutrient agar with 5% chocolated horse blood, 18 hours at 37°C
[14] = system: Corynebacterium xerosis 9755; experiment: as above; type: cell-based; details: nutrient agar with 5% chocolated horse blood, 18 hours at 37°C
[15] = system: Strep. dysgalactiae SPD1; experiment: Veterinary bacteria, MIC by two fold serial dilution in agar
Procedure: as §1

[16] = system: P. mirabilis 889; experiment: Human bacteria, MIC by serial dilution in nutrient agar; type: cell-based; details: nutrient agar with 5% chocolated horse blood, 18 hours at 37°C
[17] = system: Bord. bronchiseptica B08; experiment: Veterinary bacteria, MIC by two fold serial dilution in agar
Procedure: as §1

[18] = system: Ps. aeruginosa 10662; experiment: Human bacteria, MIC by serial dilution in nutrient agar; type: cell-based; details: nutrient agar with 5% chocolated horse blood, 18 hours at 37°C
[19] = system: Staph. aureus B4 (pen. resistant); experiment: Veterinary bacteria, MIC by two fold serial dilution in agar
Procedure: as §1

[20] = system: M. suipneumoniae JF 435; experiment: Anti-mycoplasmal activity, MIC in Friis broth agarose; type: cell-based; details: Friis broth solidified with 0.9% agarose, 6 days incubation at 37°C
[21] = system: S. dublin S7; experiment: Veterinary bacteria, MIC by two fold serial dilution in agar
Procedure: as §1

[22] = system: M. dispar NCTC 10125; experiment: Anti-mycoplasmal activity, MIC in Friis broth agarose; type: cell-based; details: Friis broth solidified with 0.9% agarose, 6 days incubation at 37°C
[23] = system: Corynebacterium pyogenes CY1; experiment: Veterinary bacteria, MIC by two fold serial dilution in agar
Procedure: as §1

[24] = system: E. coli ESS; experiment: Human bacteria, MIC by serial dilution in nutrient agar; type: cell-based; details: nutrient agar with 5% chocolated horse blood, 18 hours at 37°C
[25] = system: M. suipneumoniae ATCC 25095; experiment: Anti-mycoplasmal activity, MIC in Friis broth agarose; type: cell-based; details: Friis broth solidified with 0.9% agarose, 6 days incubation at 37°C
[26] = system: Bord. bronchiseptica BO9; experiment: Veterinary bacteria, MIC by two fold serial dilution in agar
Procedure: as §1

[27] = system: Strep. pneumoniae CN33; experiment: Human bacteria, MIC by serial dilution in nutrient agar; type: cell-based; details: nutrient agar with 5% chocolated horse blood, 18 hours at 37°C
[28] = system: S. typhimurium S18; experiment: Veterinary bacteria, MIC by two fold serial dilution in agar
Procedure: as §1

[29] = system: M. gallisepticum S6; experiment: Anti-mycoplasmal activity, MIC in Friis broth agarose; type: cell-based; details: Friis broth solidified with 0.9% agarose, 6 days incubation at 37°C
[30] = system: M. pneumoniae ATCC 15492; experiment: as above; type: cell-based; details: Friis broth solidified with 0.9% agarose, 6 days incubation at 37°C
[31] = system: Strep. pyogenes R80/421-A; experiment: Human bacteria, MIC by serial dilution in nutrient agar; type: cell-based; details: nutrient agar with 5% chocolated horse blood, 18 hours at 37°C
[32] = system: Strep. spp. 64/848-C; experiment: as above; type: cell-based; details: nutrient agar with 5% chocolated horse blood, 18 hours at 37°C
[33] = system: M. suipneumoniae TAM 6N; experiment: Anti-mycoplasmal activity, MIC in Friis broth agarose; type: cell-based; details: Friis broth solidified with 0.9% agarose, 6 days incubation at 37°C
[34] = system: K. aerogenes A; experiment: Human bacteria, MIC by serial dilution in nutrient agar; type: cell-based; details: nutrient agar with 5% chocolated horse blood, 18 hours at 37°C
[35] = system: Past. multocida PA1; experiment: Veterinary bacteria, MIC by two fold serial dilution in agar
Procedure: as §1

[36] = system: E. coli E1; experiment: as above
Procedure: as §1

[37] = system: Past. haemolytica PA5; experiment: as above
Procedure: as §1

[38] = system: E. coli NCTC 10418; experiment: Human bacteria, MIC by serial dilution in nutrient agar; type: cell-based; details: E. coli NCTC 10418 (human panel), nutrient agar with 5% chocolated horse blood, 18 hours at 37°C
[39] = system: Haemophilus influenzae Q1; experiment: as above; type: cell-based; details: nutrient agar with 5% chocolated horse blood, 18 hours at 37°C, read-out: MIC
[40] = system: Sarcina lutea 8340; experiment: as above; type: cell-based; details: Micrococcus luteus, nutrient agar with 5% chocolated horse blood, 18 hours at 37°C, read-out: MIC
[41] = Mesomycoplasma hyopneumoniae, 144 h, read-out: MIC

Compound: 1-(p-Methylsulfinylphenyl)ethyl monate A [Example 8]
- MIC [1]: 2.5 µg/mL
- MIC ([2]; M. bovis NCTC 10131, Friis broth solidified with 0.9% agarose, 6 days incubation at 37°C): .025 µg/mL
- MIC [3]: 1.0 µg/mL
- MIC [4]: 1.0 µg/mL
- MIC [5]: 1.0 µg/mL
- MIC [6]: 0.5 µg/mL
- MIC [7]: 2.5 µg/mL
- MIC ([8]; Strep. uberis SPU1, Diagnostic Sensitivity Test Agar, 18 hours at 37°C): .625 µg/mL
- MIC [9]: 32 µg/mL
- MIC ([10]; Staph. aureus Oxford (veterinary panel), Diagnostic Sensitivity Test Agar, 18 hours at 37°C): 20 µg/mL
- MIC ([11]; Staph. aureus 152 (pen. sens.), Diagnostic Sensitivity Test Agar, 18 hours at 37°C): 5.0 µg/mL
- MIC [12]: >128 µg/mL
- MIC [13]: 8.0 µg/mL
- MIC [14]: >128 µg/mL
- MIC ([15]; Strep. dysgalactiae SPD1, Diagnostic Sensitivity Test Agar, 18 hours at 37°C): 2.5 µg/mL
- MIC [16]: >128 µg/mL
- MIC ([17]; Bord. bronchiseptica B08, Diagnostic Sensitivity Test Agar, 18 hours at 37°C): >80 µg/mL
- MIC [18]: >128 µg/mL
- MIC ([19]; Staph. aureus B4 (pen. resistant), Diagnostic Sensitivity Test Agar, 18 hours at 37°C): 20 µg/mL
- MIC [20]: 2.5 µg/mL
- MIC ([21]; S. dublin S7, Diagnostic Sensitivity Test Agar, 18 hours at 37°C): >80 µg/mL
- MIC [22]: 0.5 µg/mL
- MIC ([23]; Corynebacterium pyogenes CY1, Diagnostic Sensitivity Test Agar, 18 hours at 37°C): >80 µg/mL
- MIC [24]: 4.0 µg/mL
- MIC [25]: 2.5 µg/mL
- MIC ([26]; Bord. bronchiseptica BO9, Diagnostic Sensitivity Test Agar, 18 hours at 37°C): >80 µg/mL
- MIC [27]: 8.0 µg/mL
- MIC ([28]; S. typhimurium S18, Diagnostic Sensitivity Test Agar, 18 hours at 37°C): >80 µg/mL
- MIC [29]: 10 µg/mL
- MIC [30]: 10 µg/mL
- MIC [31]: 2.0 µg/mL
- MIC [32]: 4.0 µg/mL
- MIC [33]: 2.5 µg/mL
- MIC [34]: >128 µg/mL
- MIC ([35]; Past. multocida PA1, Diagnostic Sensitivity Test Agar, 18 hours at 37°C): 10 µg/mL
- MIC ([36]; E. coli E1, Diagnostic Sensitivity Test Agar, 18 hours at 37°C): >80 µg/mL
- MIC ([37]; Past. haemolytica PA5, Diagnostic Sensitivity Test Agar, 18 hours at 37°C): 80 µg/mL
- MIC [38]: >128 µg/mL

Compound: CC(=CC(=O)OCc1cccc([S+](C)[O-])c1)CC1OCC(CC2OC2C(C)C(C)O)C(O)C1O (stereo not shown) [Example 6, m-Methylsulfinylbenzyl monate A]
- MIC [1, 41]: 10 µg/mL (≈ 20.1 µM)
- MIC ([2]; NCTC10131, 144 h): 0.25 µg/mL (≈ 0.503 µM)
- MIC ([3]; Mesomycoplasma hyorhinis, ATCC23234, 144 h, read-out: MIC): 5 µg/mL (≈ 10.1 µM)
- MIC ([4]; read-out: MIC): 2.5 µg/mL (≈ 5.03 µM)
- MIC [5, 41]: 5 µg/mL (≈ 10.1 µM)
- MIC [39]: 2.5 µg/mL (≈ 5.03 µM)
- MIC ([6]; 144 h, read-out: MIC): 5 µg/mL (≈ 10.1 µM)
- MIC [7, 41]: 5 µg/mL (≈ 10.1 µM)
- MIC ([8]; Streptococcus uberis, SPU1, 18 h): 5 µg/mL (≈ 10.1 µM)
- MIC ([9]; Staphylococcus aureus, read-out: MIC): 12.5 µg/mL (≈ 25.2 µM)
- MIC ([10]; Staphylococcus aureus, 18 h): 5 µg/mL (≈ 10.1 µM)
- MIC ([11]; Staphylococcus aureus, 18 h): 5 µg/mL (≈ 10.1 µM)
- MIC ([12]; Enterococcus faecalis, read-out: MIC): > 100 µg/mL
- MIC ([13]; read-out: MIC): 25 µg/mL (≈ 50.3 µM)
- MIC ([14]; read-out: MIC): > 100 µg/mL
- MIC ([15]; Streptococcus dysgalactiae, SPD1, 18 h): 20 µg/mL (≈ 40.3 µM)
- MIC ([16]; Proteus mirabilis, read-out: MIC): > 100 µg/mL
- MIC ([17]; Bordetella bronchiseptica, B08, 18 h): > 80 µg/mL
- MIC ([18]; Pseudomonas aeruginosa, read-out: MIC): > 100 µg/mL
- MIC ([19]; Staphylococcus aureus, 18 h): 5 µg/mL (≈ 10.1 µM)
- MIC ([20]; Mesomycoplasma hyopneumoniae, JF435, 144 h, read-out: MIC): 10 µg/mL (≈ 20.1 µM)
- MIC ([21]; Salmonella enterica, S7, 18 h): > 80 µg/mL
- MIC [40]: > 100 µg/mL
- MIC ([22]; 144 h, read-out: MIC): 2.5 µg/mL (≈ 5.03 µM)
- MIC ([23]; CY1, 18 h): > 80 µg/mL
- MIC ([24]; Escherichia coli, read-out: MIC): 25 µg/mL (≈ 50.3 µM)
- MIC ([25]; Mesomycoplasma hyopneumoniae, ATCC25095, 144 h, read-out: MIC): 5 µg/mL (≈ 10.1 µM)
- MIC ([26]; Bordetella bronchiseptica, BO9, 18 h): > 80 µg/mL
- MIC ([27]; Streptococcus pneumoniae, read-out: MIC): 25 µg/mL (≈ 50.3 µM)
- MIC ([28]; Salmonella enterica, TYPHIMURIUM, 18 h): > 80 µg/mL
- MIC ([29]; Mycoplasmoides gallisepticum, 144 h, read-out: MIC): > 10 µg/mL
- MIC ([30]; Mycoplasmoides pneumoniae, ATCC15492, 144 h, read-out: MIC): 5 µg/mL (≈ 10.1 µM)
- MIC ([33]; Mesomycoplasma hyopneumoniae, TAM6N, 144 h, read-out: MIC): 10 µg/mL (≈ 20.1 µM)
- MIC ([34]; Klebsiella aerogenes, read-out: MIC): > 100 µg/mL
- MIC ([35]; Pasteurella multocida, PA1, 18 h): 80 µg/mL (≈ 161 µM)
- MIC ([36]; Escherichia coli, E1, 18 h): > 80 µg/mL
- MIC ([37]; Mannheimia haemolytica, PA5, 18 h): 80 µg/mL (≈ 161 µM)
- MIC ([38]; Escherichia coli, NCTC10418, read-out: MIC): > 100 µg/mL
